Reference: ChEMBL document CHEMBL1149735, “Stereoselective synthesis and antimalarial activity of alpha-artelinic acid from artemisinin” (J Nat Prod, 1992)
Calls of active or inactive are those of the source. The calls are words filed in the database; no cut-off is given here.

How the values were obtained:
[1] = system: Plasmodium knowlesi; assay: Antimalarial activity as cures at day 50 in Plasmodium knowlesi infected Rhesus monkey assessed at 15 mg/kg intravenous dose for 3 days; format: functional, organism-based; parameters: dose 15 mg/kg
[2] = system: Plasmodium knowlesi; assay: Antimalarial activity as parasite elimination up to day 50 against Plasmodium knowlesi infected Rhesus monkey at 30 mg/kg intravenous dose over 3 days; format: functional, organism-based; parameters: dose 30 mg/kg
[3] = system: Plasmodium knowlesi; assay: Antimalarial activity as parasite elimination after 24 hrs against Plasmodium knowlesi infected Rhesus monkey at 30 mg/kg intravenous dose; format: functional, organism-based; parameters: dose 30 mg/kg
[4] = Toxicity in Swiss mouse; format: organism-based; conditions: in vivo

C[C@@H]1[C@H](OCc2ccc(C(=O)O)cc2)O[C@@H]2O[C@@]3(C)CC[C@@H]4[C@@H](C)CC[C@@H]1[C@]24OO3 [ARTELINIC ACID]
Activity [1]: inactive | Activity [2]: Active | Activity [3]: Active | LD50 [4]: 1000 mg/kg
